Test results taken from ChEMBL document CHEMBL5465560, “Selectivity Literature for EUbOPEN Chemogenomic Library” (2024).
Blank lines part the entries; values can stand above or below the molecule they belong to.

How the values were obtained:
[1] = biological target: T1, Tyrosine-protein kinase JAK3 (Homo sapiens) (UniProt P52333); assay: Selectivity interaction (Ambit KINOMEscan and KiNATiv profiling in Jurkat cells) EUB0000090b JAK3; type: cell-based; conditions: at 1 µM
T1 sequence (whole entry): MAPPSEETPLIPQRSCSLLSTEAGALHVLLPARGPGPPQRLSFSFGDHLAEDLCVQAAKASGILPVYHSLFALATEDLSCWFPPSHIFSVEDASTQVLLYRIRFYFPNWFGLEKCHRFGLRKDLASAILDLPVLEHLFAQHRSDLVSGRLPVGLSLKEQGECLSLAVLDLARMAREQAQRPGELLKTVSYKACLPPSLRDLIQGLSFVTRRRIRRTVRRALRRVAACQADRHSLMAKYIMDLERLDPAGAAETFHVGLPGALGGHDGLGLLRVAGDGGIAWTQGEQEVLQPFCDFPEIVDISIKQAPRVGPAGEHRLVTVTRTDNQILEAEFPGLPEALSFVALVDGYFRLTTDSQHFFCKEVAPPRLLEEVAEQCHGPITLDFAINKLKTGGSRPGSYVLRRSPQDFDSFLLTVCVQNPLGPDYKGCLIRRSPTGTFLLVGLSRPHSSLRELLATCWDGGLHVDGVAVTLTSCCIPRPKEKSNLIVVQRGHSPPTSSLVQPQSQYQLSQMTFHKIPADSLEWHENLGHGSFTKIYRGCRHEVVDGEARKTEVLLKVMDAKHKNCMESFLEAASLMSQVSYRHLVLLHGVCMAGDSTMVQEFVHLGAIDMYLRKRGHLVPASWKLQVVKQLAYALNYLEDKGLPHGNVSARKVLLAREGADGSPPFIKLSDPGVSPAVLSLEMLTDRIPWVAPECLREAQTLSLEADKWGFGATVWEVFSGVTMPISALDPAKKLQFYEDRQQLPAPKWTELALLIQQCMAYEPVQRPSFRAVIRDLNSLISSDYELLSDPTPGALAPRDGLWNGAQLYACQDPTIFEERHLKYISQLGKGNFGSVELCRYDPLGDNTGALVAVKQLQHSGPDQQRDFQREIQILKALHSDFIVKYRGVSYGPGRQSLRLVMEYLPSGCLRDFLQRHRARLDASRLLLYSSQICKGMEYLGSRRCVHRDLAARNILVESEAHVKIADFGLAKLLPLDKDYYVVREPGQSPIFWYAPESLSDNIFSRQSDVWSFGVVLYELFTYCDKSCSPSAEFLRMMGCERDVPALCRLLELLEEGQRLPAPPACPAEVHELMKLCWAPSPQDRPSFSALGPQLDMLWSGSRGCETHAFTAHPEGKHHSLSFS

[2] = biological target: T2, Mitogen-activated protein kinase 15 (Homo sapiens) (UniProt Q8TD08); assay: Selectivity interaction (KinomeScan (DiscoverX)) EUB0000618a MAPK15; conditions: at 10 µM
T2 sequence (whole entry): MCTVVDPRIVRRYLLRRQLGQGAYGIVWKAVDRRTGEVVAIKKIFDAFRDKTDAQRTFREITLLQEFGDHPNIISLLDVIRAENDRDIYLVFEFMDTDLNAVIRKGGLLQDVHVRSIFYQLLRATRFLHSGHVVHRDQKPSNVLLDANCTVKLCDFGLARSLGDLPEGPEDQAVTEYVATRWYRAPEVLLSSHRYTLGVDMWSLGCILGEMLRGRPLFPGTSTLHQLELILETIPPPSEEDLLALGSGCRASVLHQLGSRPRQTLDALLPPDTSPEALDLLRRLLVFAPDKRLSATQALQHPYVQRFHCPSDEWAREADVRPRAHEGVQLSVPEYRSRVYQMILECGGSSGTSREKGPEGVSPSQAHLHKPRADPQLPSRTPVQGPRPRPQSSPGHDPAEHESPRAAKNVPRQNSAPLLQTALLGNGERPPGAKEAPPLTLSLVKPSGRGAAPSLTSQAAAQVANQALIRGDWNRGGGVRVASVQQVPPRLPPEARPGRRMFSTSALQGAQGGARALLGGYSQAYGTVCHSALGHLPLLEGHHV

[3] = biological target: T3, Serine/threonine-protein kinase Nek2 (Homo sapiens) (UniProt P51955); assay: Selectivity interaction (ProQinase) EUB0000171b NEK2
T3 sequence (whole entry): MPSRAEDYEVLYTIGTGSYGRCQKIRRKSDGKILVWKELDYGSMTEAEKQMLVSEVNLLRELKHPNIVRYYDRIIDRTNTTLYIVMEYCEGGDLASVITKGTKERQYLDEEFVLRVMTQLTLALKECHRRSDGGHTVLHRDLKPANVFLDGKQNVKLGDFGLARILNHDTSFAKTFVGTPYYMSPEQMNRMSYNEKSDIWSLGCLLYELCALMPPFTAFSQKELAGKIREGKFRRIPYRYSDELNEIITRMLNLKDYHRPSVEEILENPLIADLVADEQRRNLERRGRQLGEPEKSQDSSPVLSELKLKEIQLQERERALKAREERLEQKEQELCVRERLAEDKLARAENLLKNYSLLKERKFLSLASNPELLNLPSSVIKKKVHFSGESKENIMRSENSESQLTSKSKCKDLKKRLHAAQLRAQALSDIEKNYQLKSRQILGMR

[4] = biological target: T4, Receptor-interacting serine/threonine-protein kinase 1 (Homo sapiens) (UniProt Q13546); assay: Selectivity interaction (KinomeScan (DiscoverX)) EUB0000666a RIPK1; conditions: at 10 µM
T4 sequence (whole entry): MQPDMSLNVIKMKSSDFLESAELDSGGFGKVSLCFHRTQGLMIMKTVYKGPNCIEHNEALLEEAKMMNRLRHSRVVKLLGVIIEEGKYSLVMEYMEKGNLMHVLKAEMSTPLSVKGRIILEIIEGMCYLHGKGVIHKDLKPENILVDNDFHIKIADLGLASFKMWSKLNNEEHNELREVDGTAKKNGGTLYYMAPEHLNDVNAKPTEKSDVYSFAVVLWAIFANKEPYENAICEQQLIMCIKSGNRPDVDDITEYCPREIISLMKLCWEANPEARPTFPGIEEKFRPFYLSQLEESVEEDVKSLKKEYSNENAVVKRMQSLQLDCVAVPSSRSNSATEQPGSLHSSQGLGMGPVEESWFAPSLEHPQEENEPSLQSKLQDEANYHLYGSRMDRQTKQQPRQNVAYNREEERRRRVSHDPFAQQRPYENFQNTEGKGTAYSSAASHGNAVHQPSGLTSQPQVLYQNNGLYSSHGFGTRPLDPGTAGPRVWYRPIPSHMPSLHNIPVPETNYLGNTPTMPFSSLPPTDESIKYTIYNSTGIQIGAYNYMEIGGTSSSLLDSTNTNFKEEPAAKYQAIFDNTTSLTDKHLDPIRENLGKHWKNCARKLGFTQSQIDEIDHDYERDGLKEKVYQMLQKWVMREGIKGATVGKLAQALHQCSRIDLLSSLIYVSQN

Compound: CN(C)C/C=C/C(=O)Nc1ccc(C(=O)N2CCCC(Nc3ncc(Cl)c(-c4c[nH]c5ccccc45)n3)C2)cc1 (stereo not given)
% of control [1]: 100%

Compound: O[C@H]1CC[C@H](Nc2ncc3nc(Nc4c(F)cc(F)cc4F)n([C@H]4CCOC4)c3n2)CC1
% of control [2]: 100%

% of control ([3]; at 1 µM): 92%
% of control ([3]; at 5 µM): 78%
Compound: C=CC(=O)Nc1cccc(C(=O)Nc2ccc(Nc3cc(-c4[nH]c(SC)nc4C)ccn3)cc2)c1

Compound: O=C(NOC[C@H](O)CO)c1ccc(F)c(F)c1Nc1ccc(I)cc1F
% of control [4]: 85%
